# In US7332489B2, “Methods and compositions of novel triazine compounds” (Reddy US Therapeutics, Inc., priority 2003, dated 2008):
# Where a name gives a salt, the structure may show the parent alone. Read-outs that look alike come from different tables or passages of the source.
# Legend:
# [1] = test system: Human aortic smooth muscle cells; experiment: Smooth muscle cell proliferation assay / anti-proliferation assay (perlecan); settings: for Proliferation Data (result in words): screens at 5 & 10 uM; for activity in anti-proliferation assay (Perlecan), in words: using the same activity scale used in Table 3
# Protocol: Human aortic smooth muscle cells (Clonetics) were used. Cells were grown in basal medium containing 5% fetal bovine serum supplemented with growth factors, basic fibroblast growth factor, epidermal growth factor and insulin. […] The cells were then serum starved for 24 h to induce quiescence. Fresh growth medium containing no compound or 10 μM compound was then added and further incubated for 24 h. Cell number was determined by using a cell proliferation assay kit (Celltiter96 AQueous from Promega).
# [2] = test system: TNF-α induced IL-6; experiment: TNF-α-induced IL-6 production determined by IL-6 ELISA; format: cell-based; settings: for activity at 10 µM: Homo sapiens, 24 h
# Summary of the method: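 Human aortic endothelial cells grown to ≥90% confluence, then treated with compounds and stimuli in serum-free medium with 0.2% albumin. Secreted IL-6 in collected media measured by sandwich ELISA (2 ug/ml capture, 200 ng/ml biotinylated detection antibody, streptavidin-HRP), read at 450 nm.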
# [3] = test system: cells; experiment: Cytotoxicity/Lactate Dehydrogenase assay; format: cell-based; settings: toxic or cause cell death; concentrations (uM) given
# Protocol: An appropriate number of cells are plated in four 96-well plates, one plate for “day 0” and three plates for days 1-3. Cells are treated with at least one compound of the present invention in varying concentrations with and without the apoptosis inducer cisplatin (2 μM) (“+cis” or “-cis”). Unteated cells are also assayed with and without cisplatin. After transfection, the plates are incubated at 37° C. overnight.
# An appropriate number of cells are plated in four 96-well plates, one plate for “day 0” and three plates for days 1-3. Cells are treated with at least one compound of the present invention in varying concentrations. The negative control cells have normal media conditions, a duplicate set of wells is treated with the composition in which the compound is provided, but there is no added compound and the positive control cells are treated with the apoptosis inducer cisplatin (2 μM). All of the cells are transfected with a vector having a promoter that is responsive to apoptosis conditions. When apoptosis occurs, the promoter is turned on and the lactic dehydrogenase gene is activated and the enzyme protein is made and active. Activity is easily detected with a color change. After transfection, the plates are incubated at 37° C. overnight.
# About 8 mls of warmed alpha MEM LDH lysis buffer (2% Triton X100) and about 8 mls of culture media (1/2 dilution) are combined. Two 96-well v-bottom plates are prepared, one labeled “lysis” and one labeled “supernatant.” To lyse the cells, about 200 μl Alpha MEM lysis buffer (diluted 1/2) is added to one test plate from which the supernatant has been removed and added to the plate labeled supernatant. After mixing, about 200 μl of lysed cells are transferred to the lysis plate. Both the lysis and supernatant plates are centrifuged at about 1600 rpm for about 10 min. After centrifugation, about 100 μl of both the supernatant or lysate is transferred to corresponding 96-well flat-bottomed plates.
# The assay for cytotoxicity uses the Cytotoxicity Detection Kit (LDH) from Roche Diagnostics Corp. (Indianapolis, Ind.). Using the directions provided, the dye solution is mixed and added each well of the lysate and supernatant plate and incubated for up to 20-25 min at 15-25° C. in the dark.
# [4] = Homo sapiens, read-out: Activity (note 1), anti-proliferation assay (perlecan)
# [5] = Homo sapiens, read-out: Avg IC-50, anti-proliferation assay (perlecan)
# [6] = Table 5, first part, class = % of control IL6 production, read-out: Inhibition of TNF-induced IL6 production
smiles,measurement,setting,value
COc1ccc(Nc2nc(NC3CCCCCC3)nc(N3CCCC3CO)n2)cc1Cl (stereo not shown),"Proliferation Data, cell morphology (rounding, blunting, morphology change)",[1],rounding
same,Proliferation Data (result in words),[1],Did not pass 5 & 10 uMscreens
same,Inflammation Data (result in words),[2]; concentration not given,Not Active
COc1ccc(Nc2nc(NC3CCCCCC3)nc(N3CCN(C)CC3)n2)cc1Cl,"Proliferation Data, cell morphology (rounding, blunting, morphology change)",[1],blunting androunding
same,Proliferation Data (result in words),[1],Did not pass 5 & 10 uMscreens
same,"Inflammation Data, activity in words at 5 uM",[2]; 5 uM,not active
same,"Inflammation Data, cell death at 5 uM",[2]; 5 uM,25%
same,"Inflammation Data, cell death at 10 uM",[2]; 10 uM,total cell death
CCc1occc(=O)c1Oc1nc(Nc2ccc(OC)c(Cl)c2)nc(NC2CCCCCC2)n1,Proliferation Data (result in words),[1],Not active at 5 & 10 uM
same,"Inflammation Data, cell death at 10 uM",[2]; 10 uM,20%
COc1ccc(Nc2nc(NC3CCCCCC3)nc(OC3CCN(C)CC3)n2)cc1Cl,"Proliferation Data, cell morphology (rounding, blunting, morphology change)",[1],rounding at 5 & 10 uM
same,"Inflammation Data, cell death at 10 uM",[2]; 10 uM,total cell death
COc1ccc(Nc2nc(NC3CCCCCC3)nc(NC3CCN(Cc4ccccc4)CC3)n2)cc1F,"Proliferation Data, cell morphology (rounding, blunting, morphology change)",[1],cell bluntingat 3 uM and rounding at 5 uM
same,"Inflammation Data, cell death at 5 uM",[2]; 5 uM,25%
same,"Inflammation Data, cell death at 10 uM",[2]; 10 uM,total cell death
"CCN1CCCC1CNc1nc(Nc2cccc3cccnc23)nc(NC2CCCCCC2)n1 (stereo not shown) [Compound 5, N^2-cycloheptyl-N^4-[(1-ethyl-2-pyrrolidinyl)methyl]-N^6-(8-quinolinyl)-1,3,5-triazine-2,4,6-triamine]",Toxicity,[3],toxic
"CCN1CCCC1CNc1nc(Nc2ccc(Cl)c(Cl)c2)nc(NC2CCCCCC2)n1 (stereo not shown) [Compound 7, N^2-cycloheptyl-N^4-(3,4-dichlorophenyl)-N^6-[(1-ethyl-2-pyrrolidinyl)methyl]-1,3,5-triazine-2,4,6-triamine]",Toxicity,[3],toxic
"CCN1CCCC1CNc1nc(Nc2ccc(F)c(F)c2)nc(NC2CCCCCC2)n1 (stereo not shown) [Compound 8, N^2-cycloheptyl-N^4-(3,4-difluorophenyl)-N^6-[(1-ethyl-2-pyrrolidinyl)methyl]-1,3,5-triazine-2,4,6-triamine]",Toxicity,[3],toxic
"CCN1CCCC1CNc1nc(Nc2ccc(OC(F)(F)F)cc2)nc(NC2CCCCCC2)n1 (stereo not shown) [Compound 9, N^2-cycloheptyl-N^4-[(1-ethyl-2-pyrrolidinyl)methyl]-N^6-[4-(trifluoromethoxy)phenyl]-1,3,5-triazine-2,4,6-triamine]",Toxicity,[3],toxic
"CCN1CCCC1CNc1nc(Nc2ccc(Cl)cc2)nc(NC2CCCCCC2)n1 (stereo not shown) [Compound 12, N^2-(4-chlorophenyl)-N^4-cycloheptyl-N^6-[(1-ethyl-2-pyrrolidinyl)methyl]-1,3,5-triazine-2,4,6-triamine]",Toxicity,[3],toxic
"CCN1CCCC1CNc1nc(Nc2ccc(Br)cc2)nc(NC2CCCCCC2)n1 (stereo not shown) [Compound 13, N^2-(4-bromophenyl)-N^4-cycloheptyl-N^6-[(1-ethyl-2-pyrrolidinyl)methyl]-1,3,5-triazine-2,4,6-triamine]",Toxicity,[3],toxic
"CCOC(=O)c1ccc(Nc2nc(NCC3CCCN3CC)nc(NC3CCCCCC3)n2)cc1 (stereo not shown) [Compound 14, Ethyl 4-[(4-(cycloheptylamino)-6-{[(1-ethyl-2-pyrrolidinyl)methyl]amino}-1,3,5-triazin-2-yl)-amino]benzoate]",Toxicity,[3],toxic
"CCN1CCCC1CNc1nc(Nc2cccc(F)c2)nc(NC2CCCCCC2)n1 (stereo not shown) [Compound 16, N^2-cycloheptyl-N^4-[(1-ethyl-2-pyrrolidinyl)methyl]-N^6-(3-fluorophenyl)-1,3,5-triazine-2,4,6-triamine]",Toxicity,[3],toxic
"CCN1CCCC1CNc1nc(Nc2ccccc2Cl)nc(NC2CCCCCC2)n1 (stereo not shown) [Compound 21, N^2-(2-chlorophenyl)-N^4-cycloheptyl-N^6-[(1-ethyl-2-pyrrolidinyl)methyl]-1,3,5-triazine-2,4,6-triamine]",Toxicity,[3],toxic
"CCN1CCCC1CNc1nc(Nc2ccccc2Br)nc(NC2CCCCCC2)n1 (stereo not shown) [Compound 22, N^2-(2-bromophenyl)-N^4-cycloheptyl-N^6-[(1-ethyl-2-pyrrolidinyl)methyl]-1,3,5-triazine-2,4,6-triamine]",Toxicity,[3],toxic
"CCN1CCCC1CNc1nc(Nc2ccc(Oc3ccccc3)cc2)nc(NC2CCCCCC2)n1 (stereo not shown) [Compound 36, N^2-cycloheptyl-N^4-[(1-ethyl-2-pyrrolidinyl)methyl]-N^6-(4-phenoxyphenyl)-1,3,5-triazine-2,4,6-triamine]",Toxicity,[3],toxic
"CCN1CCCC1CNc1nc(NC2CCCCCC2)nc(N(C)c2ccc(OC(F)(F)F)cc2)n1 (stereo not shown) [Compound 47, N^2-cycloheptyl-N^4-[(1-ethyl-2-pyrrolidinyl)methyl]-N^6-methyl-N^6-[4-(trifluoromethoxy)phenyl]-1,3,5-triazine-2,4,6-triamine]",Toxicity,[3],toxic
"COc1ccc(Nc2nc(NC3CCCCCC3)nc(N(C)C3CCN(C)CC3)n2)cc1Br [Compound 123, N-(3-Bromo-4-methoxy-phenyl)-N′-cycloheptyl-N″-methyl-N″-(1-methyl-piperidin-4-yl)-[1,3,5]triazine-2,4,6-triamine]",IC50,[1]; [4],> 7 µM
"CCN1CCC[C@H]1CNc1nc(Nc2ccc(OC)c(F)c2)nc(NC2CCCCCC2)n1 [Compound 139, N^2-cycloheptyl-N^4-((S)-1-ethyl-pyrrolidin-2-ylmethyl)-N^6-(3-fluoro-4-methoxyphenyl)-1,3,5-triazine-2,4,6-triamine]",IC50,[1]; [4],3 to 7 µM
same,IC50,[1]; [5],4 to 5 µM
same,activity at 10 µM,[2]; [6],0 to 25%
"CCN1CCC[C@@H]1CNc1nc(Nc2ccc(OC)c(F)c2)nc(NC2CCCCCC2)n1 [Compound 140, N^2-cycloheptyl-N^4-((R)-1-ethyl-pyrrolidin-2-ylmethyl)-N^6-(3-fluoro-4-methoxyphenyl)-1,3,5-triazine-2,4,6-triamine]",IC50,[1]; [4],3 to 7 µM
same,IC50,[1]; [5],4 to 5 µM
same,"% IL6 production compare to TNF stimulation of IL6 (100%), Compds tested @ 10 uM HAEC, IL6","[2]; HAEC, 10 uM compound, TNF stimulation = 100%",12.57%
same,activity at 10 µM,[2]; [6],0 to 25%
"COc1ccc(Nc2nc(NC3CCCCCC3)nc(N(C)C3CCN(C)CC3)n2)cc1F [Compound 160, N^2-cycloheptyl-N^4-(3-fluoro-4-methoxyphenyl)-N^6-methyl-N^6-(1-methyl-piperidin-4-yl)-1,3,5-triazine-2,4,6-triamine, hydrogen chloride salt]",IC50,"[1]; read-out: Activity (note 1), anti-proliferation assay (perlecan)",3 to 7 µM
same,IC50,"[1]; read-out: Avg IC-50, anti-proliferation assay (perlecan)",4 to 5 µM
same,activity at 10 µM,"[2]; read-out: % IL6 production compare to TNF stimulation of IL6 (100%), Compds tested @ 10 uM HAEC, IL6",1%
same,activity at 10 µM,[2]; read-out: Inhibition of TNF-induced IL6 production,0 to 25%
"COc1ccc(Nc2nc(NC3CCCCCC3)nc(N(C)C3CCN(C)CC3)n2)cc1F [Compound 167, N^2-cycloheptyl-N^4-(3-fluoro-4-methoxy-phenyl)-N^6-methyl-N^6-(1-methyl-piperidin-4-yl)-1,3,5-triazine-2,4,6-triamine maleate salt]",IC50,"[1]; read-out: Activity (note 1), anti-proliferation assay (perlecan), maleate salt",> 7 µM
same,"% IL6 production compare to TNF stimulation of IL6 (100%), HAEC, IL6, @ 5 uM","[2]; HAEC, TNF stimulated, compound 5 uM (bracketed value), maleate salt",25%
"COc1ccc(Nc2nc(NC3CCCCCC3)nc(N(C)C3CCN(C)CC3)n2)cc1F [N^2-cycloheptyl-N^4-(3-fluoro-4-methoxyphenyl)-N^6-methyl-N^6-(1-methyl-piperidin-4-yl)-1,3,5-triazine-2,4,6-triamine]","activity in anti-proliferation assay (Perlecan), in words",[1],medium or moderate activity
"CN1CCC(N(C)c2nc(Nc3ccc4ccccc4c3)nc(NC3CCCCCC3)n2)CC1 [N^2-cycloheptyl-N^4-methyl-N^4-(1-methyl-piperidin-4-yl)-N^6-naphthalen-2-yl-1,3,5-triazine-2,4,6-triamine]","activity in anti-proliferation assay (Perlecan), in words",[1],high activity
COc1ccc(Nc2nc(NC3CCCCCC3)nc(OC3CCCN(C(C)=O)C3)n2)cc1Cl (stereo not shown) [drawing 1597],Proliferation Data (result in words),[1],Not active at 5 & 10 uM
same,"Inflammation Data, inhibition at 10 uM",[2]; 10 uM,complete inhibition at 10 uM
COc1ccc(Nc2nc(NC3CCCCCC3)nc(OCC3CCCN3)n2)cc1Cl (stereo not shown) [drawing 1599],Proliferation Data (result in words),[1],Not active at 5 & 10 uM
COc1ccc(Nc2nc(NC3CCCCCC3)nc(NC3CCN(Cc4ccccc4)CC3)n2)cc1Cl [drawing 1615],"Proliferation Data, cell morphology (rounding, blunting, morphology change)",[1],cell blunting at 1 uMand rounding at 5 uM
same,"Inflammation Data, cell death at 5 uM",[2]; 5 uM,20%
same,"Inflammation Data, cell death at 10 uM",[2]; 10 uM,> 50%
